Columns and labels:
Assay type in all cases: biochemical
Conditions in all cases: Table 5
[1] = molecular target: Jarid1B (Homo sapiens (Human), UniProt Q9UGL1); assay: Jarid1B in vitro enzyme inhibition assay (TR-FRET)
Text: (§1) This assay determines the ability of a test compound to inhibit Jarid1B, JMJD2C and JMJD3 demethylase activity. Baculovirus expressed Jarid1B (GenBank Accession #NM-006618, AA 2-751) was purchased from BPS Bioscience (Cat #50121) or custom made by MolecularThroughput. Baculovirus expressed JMJD2C (GenBank Accession #BC143571, AA 2-372) was purchased from BPS Bioscience (Cat#50105). Baculovirus expressed JMJD3 (GenBank Accession #NM-001080424, AA1043-end) was purchased from BPS Bioscience (Cat#50115).
The ability of test compounds to inhibit the activity of Jarid1B was determined in 384-well plate format under the following reaction conditions: 0.8 nM Jarid1B, 300 nM H3K4me3-biotin labeled peptide (Anaspec cat #64357), 2 μM alpha-ketoglutaric acid in assay buffer of 50 mM HEPES, pH7.3, 0.005% Brij35, 0.5 mM TCEP, 0.2 mg/ml BSA, 50 μM sodium L-ascorbate, and 2 μM ammonium iron(II) sulfate. Reaction product was determined quantitatively by TR-FRET after the addition of detection reagent Phycolink Streptavidin-allophycocyanin (Prozyme) and Europium-anti-mono- or di-methylated histone H3 lysine 4 (H3K4me1-2) antibody (PerkinElmer) in the presence of 5 mM EDTA in LANCE detection buffer (PerkinElmer) at a final concentration of 25 nM and 1 nM, respectively. […]

[2] = molecular target: JMJD2C (Homo sapiens (Human), UniProt Q9H3R0); assay: JMJD2C in vitro enzyme inhibition assay (TR-FRET)
Text: as §1
The ability of test compounds to inhibit the activity of JMJD2C was determined in 384-well plate format under the following reaction conditions: 0.3 nM JMJD2C, 300 nM H3K9me3-biotin labeled peptide (Anaspec cat #64360), 2 μM alpha-ketoglutaric acid in assay buffer of 50 mM HEPES, pH7.3, 0.005% Brij35, 0.5 mM TCEP, 0.2 mg/ml BSA, 50 μM sodium L-ascorbate, and 2 μM ammonium iron(II) sulfate. Reaction product was determined quantitatively by TR-FRET after the addition of detection reagent Phycolink Streptavidin-allophycocyanin (Prozyme) and Europium-anti-di-methylated histone H3 lysine 9 (H3K9me2) antibody (PerkinElmer) in the presence of 5 mM EDTA in LANCE detection buffer (PerkinElmer) at a final concentration of 50 nM and 1 nM, respectively. […]

[3] = molecular target: JMJD3 (Homo sapiens, UniProt O15054); assay: JMJD3 in vitro enzyme inhibition assay (AlphaScreen)
Text: as §1
The ability of test compounds to inhibit the activity of JMJD3 was determined in 384-well plate format under the following reaction conditions: 1 nM JMJD3, 250 nM H3K27me3-biotin labeled peptide (Anaspec cat #64367), 1 μM alpha-ketoglutaric acid in assay buffer of 50 mM HEPES, pH7.3, 0.005% Brij35, 0.5 mM TCEP, 0.2 mg/ml BSA, 50 μM sodium L-ascorbate, 5 μM ammonium iron(II) sulfate. Reaction product is determined quantitatively by AlphaScreen detection after the addition of detection reagents anti-H3K27me1 antibody, 5 μg/ml AlphaScreen® Streptavidin-coated Donor beads, and 5 μg/ml AlphaScreen® Protein A Acceptor beads in 50 mM HEPES, pH7.3, 10 mM NaCl, 0.005% Brij35, 10 mM EDTA, 2 mg/ml BSA. […]

Chain of JMJD2C (Q9H3R0 2-372): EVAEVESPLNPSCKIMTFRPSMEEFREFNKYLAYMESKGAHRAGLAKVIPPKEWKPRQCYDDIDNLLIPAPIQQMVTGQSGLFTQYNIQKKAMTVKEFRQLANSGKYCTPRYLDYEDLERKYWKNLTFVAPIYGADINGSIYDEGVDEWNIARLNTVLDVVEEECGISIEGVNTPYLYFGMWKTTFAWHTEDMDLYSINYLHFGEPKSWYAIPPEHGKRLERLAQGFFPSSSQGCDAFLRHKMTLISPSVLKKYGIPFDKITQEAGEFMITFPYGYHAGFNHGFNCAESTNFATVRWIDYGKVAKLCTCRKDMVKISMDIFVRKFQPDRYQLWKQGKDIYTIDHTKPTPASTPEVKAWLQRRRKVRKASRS
Chain of Jarid1B (Q9UGL1 2-751): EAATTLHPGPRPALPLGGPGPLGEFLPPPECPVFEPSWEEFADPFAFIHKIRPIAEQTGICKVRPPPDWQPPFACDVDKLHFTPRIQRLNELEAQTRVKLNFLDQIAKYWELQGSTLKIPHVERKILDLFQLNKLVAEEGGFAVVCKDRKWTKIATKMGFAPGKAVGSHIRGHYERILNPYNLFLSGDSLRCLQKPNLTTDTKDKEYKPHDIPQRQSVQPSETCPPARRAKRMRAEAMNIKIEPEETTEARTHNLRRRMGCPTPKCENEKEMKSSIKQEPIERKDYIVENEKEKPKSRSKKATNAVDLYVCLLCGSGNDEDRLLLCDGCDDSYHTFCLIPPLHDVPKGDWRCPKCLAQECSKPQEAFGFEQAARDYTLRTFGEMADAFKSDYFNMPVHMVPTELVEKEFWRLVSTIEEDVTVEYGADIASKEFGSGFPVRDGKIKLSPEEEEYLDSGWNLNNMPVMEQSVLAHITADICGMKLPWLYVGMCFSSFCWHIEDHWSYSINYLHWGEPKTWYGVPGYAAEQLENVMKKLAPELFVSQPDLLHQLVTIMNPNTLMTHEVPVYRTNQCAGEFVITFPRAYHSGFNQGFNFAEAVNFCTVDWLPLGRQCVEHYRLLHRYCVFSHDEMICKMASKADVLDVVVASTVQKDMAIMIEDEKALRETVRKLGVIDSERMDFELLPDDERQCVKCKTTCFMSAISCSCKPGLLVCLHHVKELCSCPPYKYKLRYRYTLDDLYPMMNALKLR

2-{1-[(6-fluoro-1,2,3,4- tetrahydronaphthalen-1-yl)methyl]-1H- imidazol-4-yl}-4-[5-(trifluoromethyl)-1H 1,2,3-triazol-4-yl]pyridine [Example 100]
IC50 [1]: ≤ 0.1 µM
IC50 [2]: > 10 µM
IC50 [3]: > 10 µM

From patent publication US9896436B2, “Histone demethylase inhibitors” (Celgene Quanticel Research, Inc., priority 2014, dated 2018)
